The values that follow come from BindingDB's records for doi:10.1021/jm701266y (Lund University, 2008).

The target in this assay is Galectin-3 (Homo sapiens, UniProt P17931). Kind of assay: Fluorescence Polarization Assay. The settings on record: pH 7.2; 24 °C. How it is done: In fluorescence polarization measurements, a fluorescent probe was excited with plane-polarized light and the degree of polarization remaining in the emitted light is measured. When the probe is bound to protein, it rotates slower than when free, and the remaining fluorescence polarization is higher. The fluorescent anisotropy value for a probe-protein mixture is the average of the value for bound and free probe. For the direct binding asaay, the data (anisotropy, A in mA vs galectin concentration, [G] in uM) were fitted to a simplified formula to obtain Kd.
On the technique in general: In fluorescence polarisation assays a small probe gives low polarisation when free and higher when bound to something large.

Galectin-3, sequence (P17931 whole entry): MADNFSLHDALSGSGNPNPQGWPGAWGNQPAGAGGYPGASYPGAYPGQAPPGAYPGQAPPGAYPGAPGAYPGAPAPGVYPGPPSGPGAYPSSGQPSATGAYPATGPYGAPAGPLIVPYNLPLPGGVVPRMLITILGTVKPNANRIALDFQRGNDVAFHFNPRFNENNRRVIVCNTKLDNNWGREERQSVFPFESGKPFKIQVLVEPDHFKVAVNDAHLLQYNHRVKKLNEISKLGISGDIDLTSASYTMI

Regarding `CS[C@@H]1O[C@H](CO)[C@H](O)[C@H](NC(=O)c2ccc(C)cc2)[C@H]1OCc1ccccc1` [N-[(2S,3R,4S,5R,6R)-3-(benzyloxy)-5-hydroxy-6-(hydroxymethyl)-2-(methylsulfanyl)oxan-4-yl]-4-methylbenzamide], binding was put at a Kd of 380 µM.

By Kd is commonly meant the concentration at which binding is half-saturated.
